The results in this text go back to US20060084704A1, “Methods and compositions for enhancing degradation of nuclear receptor transcription factors and uses thereof” (priority 2004, published 2006).

Where only a bound is given, the exact number is not on record here.

Common to all, as to format: cell-based
In one assay the target is T1, AR (Homo sapiens, UniProt P10275, T878A).
T1 construct: LNCaP cells express an endogenous mutant AR that is found in prostate cancer patients; host or cells: LNCaP
T1 sequence (P10275 1-920 T878A): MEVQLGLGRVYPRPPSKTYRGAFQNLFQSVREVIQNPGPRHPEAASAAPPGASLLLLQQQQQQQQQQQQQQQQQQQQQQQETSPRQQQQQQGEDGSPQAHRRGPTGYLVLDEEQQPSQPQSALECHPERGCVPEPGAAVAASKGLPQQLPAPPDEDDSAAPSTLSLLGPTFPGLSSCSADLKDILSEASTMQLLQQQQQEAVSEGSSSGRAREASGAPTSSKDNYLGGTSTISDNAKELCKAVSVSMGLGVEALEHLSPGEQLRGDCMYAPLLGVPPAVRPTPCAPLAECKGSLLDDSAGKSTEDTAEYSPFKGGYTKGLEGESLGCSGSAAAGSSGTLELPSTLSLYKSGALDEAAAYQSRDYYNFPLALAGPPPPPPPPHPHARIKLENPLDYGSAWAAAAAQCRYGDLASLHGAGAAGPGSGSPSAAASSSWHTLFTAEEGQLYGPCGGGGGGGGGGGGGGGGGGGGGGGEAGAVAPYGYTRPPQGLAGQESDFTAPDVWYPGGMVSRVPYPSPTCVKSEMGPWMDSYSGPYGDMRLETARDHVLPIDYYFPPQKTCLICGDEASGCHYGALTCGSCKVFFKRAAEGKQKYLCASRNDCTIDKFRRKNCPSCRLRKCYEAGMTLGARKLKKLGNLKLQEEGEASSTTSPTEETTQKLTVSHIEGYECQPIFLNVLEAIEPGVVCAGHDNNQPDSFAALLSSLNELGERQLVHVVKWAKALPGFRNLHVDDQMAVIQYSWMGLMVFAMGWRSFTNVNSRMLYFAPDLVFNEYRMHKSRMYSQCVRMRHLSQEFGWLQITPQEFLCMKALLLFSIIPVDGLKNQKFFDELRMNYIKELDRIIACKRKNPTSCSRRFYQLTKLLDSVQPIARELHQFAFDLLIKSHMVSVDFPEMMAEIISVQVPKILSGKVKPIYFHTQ
As to conditions: LNCaP, JC9 5 micromolar about 20 hours, then cycloheximide 15 micrograms/milliliter. As for the experimental part:
To determine whether the observed reduction of AR protein levels was due to protein degradation rather than inhibition of AR protein synthesis, a second set of three replicate experiments was performed. […] In the absence of new AR protein synthesis, any alterations in AR levels would be mainly attributable to protein degradation. LNCaP cells were cultured, and incubated with JC9 (5 micromolar) for about 20 hours.

The next assay has as its target T2, PPAR beta (Homo sapiens, UniProt Q03181).
T2 construct: endogenous in cells; host or cells: LNCaP
T2 sequence (Q03181 1-441): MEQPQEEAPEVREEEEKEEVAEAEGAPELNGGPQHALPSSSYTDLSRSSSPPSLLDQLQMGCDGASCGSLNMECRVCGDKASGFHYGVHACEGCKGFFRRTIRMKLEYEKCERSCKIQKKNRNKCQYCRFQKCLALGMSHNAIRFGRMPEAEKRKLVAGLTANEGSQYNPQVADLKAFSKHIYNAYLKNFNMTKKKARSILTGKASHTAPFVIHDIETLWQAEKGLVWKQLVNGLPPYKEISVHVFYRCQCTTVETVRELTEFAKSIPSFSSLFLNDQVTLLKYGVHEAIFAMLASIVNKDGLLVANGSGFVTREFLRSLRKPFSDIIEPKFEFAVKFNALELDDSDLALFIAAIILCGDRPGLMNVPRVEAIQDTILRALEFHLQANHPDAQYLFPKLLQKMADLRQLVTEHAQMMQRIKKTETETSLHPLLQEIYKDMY
Description: Western blot of LNCaP cell lysates, PPAR beta. The following applies: 1 or 2 micromolar, 24 hours, presence or absence of DHT. As to the method:
(§1) Human prostate cancer LNCaP cells and T47D cells were plated at a density of 7×10^5 cells per 60 millimeter tissue culture dish in […] (RPMI) medium containing 10% FBS. The medium was changed to RPMI or DME medium containing 10% charcoal-stripped serum 24 hours later to deplete cellular androgens or estrogens. After another 24 hours, treatment with the test compounds began. The test dose of JC15 was 1 or 2 micromolar and the test does of JC9 was 1, 5 and 10 micromolar. LNCap cells also received dihydrotestosterone (DHT) (3 nanomolar). Control cells received a corresponding amount of the vehicle, dimethylsulfoxide (DMSO) (<0.04%) for an equivalent exposure time. Cells were incubated with JC15 for 24 or 48 hours, and were lysed in 250 microliters of 1×SDS/PAGE loading buffer. Approximately 40 micrograms of total cellular protein was loaded in each lane of a pre-cast gel (NuPAGE, Invitrogen). Protein separation and transfer were performed following the manufacturer's instructions.
(§2) For the prostate cell lysates, androgen receptor (AR) protein was visualized by incubating the resultant membranes with an anti-AR antibody (BD-PharMingen), followed by chemiluminescence detection (ECL Plus, Amersham). […] The resultant protein signals were quantified using densitometry and NIH ImageJ software.
Background: In western blotting, separated proteins are transferred to a membrane and probed.

The next assay addresses T3, ER beta (Homo sapiens, UniProt Q92731).
T3 construct: endogenous in cells; host or cells: LNCaP
The experiment in a line: Western blot of LNCaP cell lysates, ER beta. The following applies: 1 or 2 micromolar, 24 hours, presence or absence of DHT. As for the experimental part: as §1, §2

T3 sequence (Q92731 whole entry): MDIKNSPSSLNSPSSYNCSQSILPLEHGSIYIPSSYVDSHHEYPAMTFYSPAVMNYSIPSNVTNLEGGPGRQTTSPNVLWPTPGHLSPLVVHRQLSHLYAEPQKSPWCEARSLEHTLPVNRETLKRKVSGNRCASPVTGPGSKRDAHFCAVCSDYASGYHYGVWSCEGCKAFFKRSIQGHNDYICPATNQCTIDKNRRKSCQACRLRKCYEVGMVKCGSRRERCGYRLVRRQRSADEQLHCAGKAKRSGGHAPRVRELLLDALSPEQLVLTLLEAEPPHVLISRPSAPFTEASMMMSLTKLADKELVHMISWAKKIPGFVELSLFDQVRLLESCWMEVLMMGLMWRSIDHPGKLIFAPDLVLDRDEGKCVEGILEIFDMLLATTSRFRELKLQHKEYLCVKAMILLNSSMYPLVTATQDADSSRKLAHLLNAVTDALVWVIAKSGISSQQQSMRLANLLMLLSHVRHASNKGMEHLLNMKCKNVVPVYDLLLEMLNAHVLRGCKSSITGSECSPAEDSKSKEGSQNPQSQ

With `COc1ccc(C=CC(=O)C=C(O)C=Cc2ccc(OC)c(OC)c2)cc1OC` [JC9, 5-hydroxy-1,7-bis(3,4-dimethoxyphenyl)-1,4,6-heptatrien-3-one], the “time within which degradation of existing AR protein was enhanced” value on AR was not above 4 h.

Turning to `CCOC(=O)CCC(C(=O)C=Cc1ccc(O)c(OC)c1)C(=O)C=Cc1ccc(O)c(OC)c1` (stereo not drawn) [JC15, 7-(4-hydroxy-3-methoxyphenyl)-4-[3-(4-hydroxy-3-methoxyphenyl)acryloyl]-5-oxo-hept-6-enoic acid ethyl ester], the “cellular concentration of PPAR beta” value at PPAR beta is listed as “did not substantially affect”. For the same compound, the “cellular concentration of ER beta” value on ER beta is “did not substantially affect”.
